Measured values published in patent US20140205654A1, “LIPOSOMAL VANCOMYCIN FOR THE TREATMENT OF MRSA INFECTIONS” (CEDARS-SINAI MEDICAL CENTER, priority 2011, published 2014).
≈ marks a conversion by molar mass, not a printed value.

Tests used:
Format in all cases: cell-based
MRSA 78 = experiment: MIC by broth dilution; settings: Staphylococcus aureus, 24 h, read-out: Vancomycin MIC
Procedure: (§1) The MICs of free and liposomal antibiotics for all strains were determined by the broth dilution technique. Briefly, serial dilutions of free- or liposome-encapsulated antibiotic from 20 to 0.3 μg/ml were prepared. For bacterial suspensions, frozen stocks of MRSA were streaked on sheep blood agar plates. Single colonies were inoculated into fresh media and shaken for 20 hr at 37° C. The overnight bacteria were diluted and added to 96-well plates (Becton Dickinson) to achieve an approximate concentration of 1×10^5. The inocula were confirmed by plating on agar. The 96-well plates were then incubated with or without shaking at 37° C., and the lowest concentration of antibiotic formulations that inhibited visible growth of bacteria was determined after 24 hours (MIC). Incubation of the plates with shaking (at 200 rpm) increased the consistency of MIC measurement for the liposomal preparations. For determination of MBC, the broths used for MIC determination were plated on agar, and the first dilution at which 99.9% of the original inocula were killed was identified. All MIC and MBC assays were performed at least three times.

MRSA 79 = experiment: MIC by broth dilution; settings: Staphylococcus aureus, 24 h, read-out: Vancomycin MIC
Procedure: as §1

MRSA 80 = experiment: MIC by broth dilution; settings: Staphylococcus aureus, 24 h, read-out: Vancomycin MIC
Procedure: as §1

MRSA 81 = experiment: MIC by broth dilution; settings: Staphylococcus aureus, 24 h, read-out: Vancomycin MIC
Procedure: as §1

MRSA 82 = experiment: MIC by broth dilution; settings: Staphylococcus aureus, 24 h, read-out: Vancomycin MIC
Procedure: as §1

MRSA 83 = experiment: MIC by broth dilution; settings: Staphylococcus aureus, 24 h, read-out: Vancomycin MIC
Procedure: as §1

MRSA strain ATCC 43300 = experiment: MIC by broth dilution; settings: Staphylococcus aureus, 24 h, read-out: Vancomycin MIC
Procedure: as §1

MRSA strain LAC [1] = experiment: MIC by broth dilution; settings: Staphylococcus aureus, 24 h, read-out: Vancomycin MIC
Procedure: as §1

MRSA strain NRS-35 [2] = experiment: MIC by broth dilution; settings: Staphylococcus aureus, 24 h, read-out: Vancomycin MIC
Procedure: as §1

MRSA strain LAC [3] = experiment: MBC determination; settings: Staphylococcus aureus, read-out: Vancomycin MBC
Procedure: as §1

MRSA strain NRS-35 [4] = experiment: MBC determination; settings: Staphylococcus aureus, read-out: Vancomycin MBC
Procedure: as §1

CN[C@H](CC(C)C)C(=O)N[C@H]1C(=O)N[C@@H](CC(N)=O)C(=O)N[C@H]2C(=O)N[C@H]3C(=O)N[C@H](C(=O)N[C@H](C(=O)O)c4cc(O)cc(O)c4-c4cc3ccc4O)[C@H](O)c3ccc(c(Cl)c3)Oc3cc2cc(c3O[C@@H]2O[C@H](CO)[C@@H](O)[C@H](O)[C@H]2O[C@H]2C[C@](C)(N)[C@H](O)[C@H](C)O2)Oc2ccc(cc2Cl)[C@H]1O [Free Vancomycin, Vancomycin]
MIC (MRSA 78): 1.25 µg/mL (≈ 0.863 µM) | MIC (MRSA 79): 1.25 µg/mL (≈ 0.863 µM) | MIC (MRSA 80): 1.25 µg/mL (≈ 0.863 µM) | MIC (MRSA 81): 1.25 µg/mL (≈ 0.863 µM) | MIC (MRSA 82): 2.5 µg/mL (≈ 1.73 µM) | MIC (MRSA 83): 1.25 µg/mL (≈ 0.863 µM) | MIC (MRSA strain ATCC 43300): 1.25 to 2.5 µg/mL (≈ 0.863 to 1.73 µM) | MIC (MRSA strain LAC [1]): 1.25 to 2.5 µg/mL (≈ 0.863 to 1.73 µM) | MIC (MRSA strain NRS-35 [2]): 2.5 µg/mL (≈ 1.73 µM) | MBC (MRSA strain LAC [3]): 2.5 µg/mL (≈ 1.73 µM) | MBC (MRSA strain NRS-35 [4]): 2.5 to 5 µg/mL (≈ 1.73 to 3.45 µM)
